The subject of this assay is T. cruzi (Tulahuen strain) in L929. Kind of assay: Washout assay in T. cruzi-infected L929 cultures (Tulahuen strain). Particulars: 10 μM for seven days, then seven days drug-free medium; light microscopy. The format is cell-based, Trypanosoma cruzi. How it is done: To explore in vitro parasitic exhaustion, T. cruzi-infected L929 cultures were incubated for seven days with the compounds at 10 μM. Then, fresh drug-free medium was added and replaced every 48 h. After seven days of incubation, the number of released parasites into the supernatant was quantified by light microscopy.
T. cruzi-infected L929 cultures (using the Tulahuen-β gal strain) were exposed or not to 10 µM of each nucleoside derivative, and the RPMI culture medium (containing the tested compounds) replaced every 48 h. After seven days of incubation, the cultures were rinsed with 0.1 M phosphate buffered saline (PBS), and drug-free culture medium was added for another seven days of incubation, replacing the drug-free medium every 48 h. Parasites released into the supernatant of the cell cultures were quantified using light microscopy, and the parasite burden into the infected cultures was analyzed by adding the substrate CPRG (chlorophenol red ß-D-galactopyranoside) followed by spectrophotometric measurements at 570 nm. The results were expressed as percentage of reduction in parasite growth compared to untreated cells, and EC50 values were calculated. Bz was used as a positive control. The data results from two independent experiments done in at least duplicate.

We go through one molecule from paper PMC9695592, “Phenotypic Evaluation of Nucleoside Analogues against Trypanosoma cruzi Infection: In Vitro and In Vivo Approaches” (Molecules, 2022).

Entries after “also recorded” stand apart in the source; their conditions may differ.

Regarding `Nc1ncnc2c1c(-c1ccc(Cl)c(F)c1)cn2[C@@H]1O[C@H](CO)[C@@H](O)[C@H]1O` [FH10714, 7-(3-fluoro,4-chlorophenyl)tubercidin], the “parasites released into the supernatant after washout” value is listed as “sterilized the infected cultures; also recorded: cleared the parasitism; also recorded: eliminated the parasitism”.
